Source: US20260226049A1, “NITROGEN-CONTAINING HETEROCYCLIC COMPOUND, PREPARATION METHOD THEREFOR, AND USE THEREOF” (BIVISION PHARMACEUTICALS, INC, priority 2023, published 2026)
Each block holds one compound with its values, some of them ahead of it.

Test system: HT1080 cell line with high FAP expression
Test: ^68Ga labeling and animal imaging assay (PET/CT) in tumor-bearing mice
Type: in vivo
Design: Imaging data, Muscle / Imaging data, Bone / Imaging data, Bladder / Imaging data, Tumor / Imaging data, Intestine / Imaging data, Brain / Imaging data, Heart / Imaging data, Liver / Imaging data, Lung / Imaging data, Kidney: unit not given here
Settings: for uptake in the tumor at 3 hours: 3 hours after injection
Protocol: A. 1.0 mg of JHH7 precursor was weighed and dissolved in 0.1 M sodium acetate buffer to prepare a 1.0 mg/mL precursor solution.
B. The Ge/Ga generator was eluted stepwise with 5 mL of 0.1 M HCl, and the highest activity fraction (0.5 mL) was collected. 0.5 mL of metal-free 0.1 M sodium acetate buffer (pH=4.5) was added. In a 1.5 mL centrifuge tube as the reaction tube, a specific amount of precursor [1000 (molecular weight)/14.94 μL (precursor solution)/mCi (radionuclide)] was added, vortex-mixed for 10 s, and heated at 95° C., 800 rpm for 15 min.
C. The C18 Sep-Pak was activated with anhydrous ethanol, rinsed thoroughly with pure water, and the excess water was removed.
D. The solution after the reaction was passed through the C18 Sep-Pak, rinsed with pure water, and the excess water was removed. Subsequently, the C18 Sep-Pak was eluted with ethanol, collecting approximately 10 tubes with 3 drops per tube.
E. The final preparation should be a clear solution, prepared fresh for immediate use and limited to the same day.
1) The PET/CT was powered on according to the standard operating procedures, the scanning software was launched, and daily calibration was performed.
2) Animal anesthesia preparation was conducted, where tumor-bearing mice (supplied by Shanghai Alamo Pharmaceutical Technology Co., Ltd., HT1080 cell line with high FAP expression) were anesthetized using isoflurane.
3) After the loss of righting reflex in the tumor-bearing mice, the imaging agent was injected via the tail vein.
4) After drug administration, dynamic scanning at 1 hour and static scanning was performed at 3 hours were performed for 10 minutes.
5) During the process, animal body weight, injection dose, injection time, and residual dose were recorded according to the record sheet, and the time of measuring the injection dose and the time of measuring the residual dose were separately recorded.
6) The uptake in animal tumors, muscles, and other organs was analyzed using PMOD software.
^68Ga-labeled compounds JHH7 and JHH11 were imaged in tumor-bearing mice, and the results are shown in FIG. 5 and FIG. 6, with the imaging data shown in Tables 4 and 5.

[1] = tumor-bearing mice, intravenous injection

- Imaging data, Bladder (5 min): 3.02
- Imaging data, Bone (5 min): 0.17
- Imaging data, Brain (5 min): 0.90
- Imaging data, Heart (5 min): 4.61
- Imaging data, Intestine (5 min): 0.47
- Imaging data, Kidney (5 min): 6.73
- Imaging data, Liver (5 min): 1.71
- Imaging data, Lung (5 min): 1.78
- Imaging data, Muscle (5 min): 0.81
- Imaging data, Tumor (5 min): 0.91
- Imaging data, Bladder (10 min): 49.75
- Imaging data, Bone (10 min): 0.28
- Imaging data, Brain (10 min): 0.82
- Imaging data, Heart (10 min): 2.19
- Imaging data, Intestine (10 min): 0.21
- Imaging data, Kidney (10 min): 5.59
- Imaging data, Liver (10 min): 0.88
- Imaging data, Lung (10 min): 0.94
- Imaging data, Muscle (10 min): 1.56
- Imaging data, Tumor (10 min): 2.47
- Imaging data, Bladder (15 min): 84.10
- Imaging data, Bone (15 min): 0.30
- Imaging data, Brain (15 min): 0.59
- Imaging data, Heart (15 min): 1.43
- Imaging data, Intestine (15 min): 0.23
- Imaging data, Kidney (15 min): 3.87
- Imaging data, Liver (15 min): 0.50
- Imaging data, Lung (15 min): 0.79
- Imaging data, Muscle (15 min): 1.42
- Imaging data, Tumor (15 min): 3.36
- Imaging data, Bladder (20 min): 109.69
- Imaging data, Bone (20 min): 0.18
- Imaging data, Brain (20 min): 0.55
- Imaging data, Heart (20 min): 1.01
- Imaging data, Intestine (20 min): 0.22
- Imaging data, Kidney (20 min): 3.35
- Imaging data, Liver (20 min): 0.38
- Imaging data, Lung (20 min): 0.45
- Imaging data, Muscle (20 min): 1.30
- Imaging data, Tumor (20 min): 3.88
- Imaging data, Bladder (25 min): 145.55
- Imaging data, Bone (25 min): 0.17
- Imaging data, Brain (25 min): 0.48
- Imaging data, Heart (25 min): 0.94
- Imaging data, Intestine (25 min): 0.15
- Imaging data, Kidney (25 min): 2.74
- Imaging data, Liver (25 min): 0.23
- Imaging data, Lung (25 min): 0.28
- Imaging data, Muscle (25 min): 1.29
- Imaging data, Tumor (25 min): 4.70
- Imaging data, Bladder (30 min): 157.22
- Imaging data, Bone (30 min): 0.10
- Imaging data, Brain (30 min): 0.46
- Imaging data, Heart (30 min): 0.72
- Imaging data, Intestine (30 min): 0.16
- Imaging data, Kidney (30 min): 2.88
- Imaging data, Liver (30 min): 0.25
- Imaging data, Lung (30 min): 0.37
- Imaging data, Muscle (30 min): 0.97
- Imaging data, Tumor (30 min): 5.00
- Imaging data, Bladder (1.5 h): 89.40
- Imaging data, Bone (1.5 h): 0.53
- Imaging data, Brain (1.5 h): 0.23
- Imaging data, Heart (1.5 h): 0.45
- Imaging data, Intestine (1.5 h): 0.92
- Imaging data, Kidney (1.5 h): 0.71
- Imaging data, Liver (1.5 h): 0.52
- Imaging data, Lung (1.5 h): 0.54
- Imaging data, Muscle (1.5 h): 0.17
- Imaging data, Tumor (1.5 h): 6.40
- Imaging data, Bladder (3 h): 7.50
- Imaging data, Bone (3 h): 0.14
- Imaging data, Brain (3 h): 0.12
- Imaging data, Heart (3 h): 0.21
- Imaging data, Intestine (3 h): 0.60
- Imaging data, Kidney (3 h): 0.55
- Imaging data, Liver (3 h): 0.43
- Imaging data, Lung (3 h): 0.55
- Imaging data, Muscle (3 h): 0.19
- Imaging data, Tumor (3 h): 5.20
- time of peak uptake in the tumor after injection [1]: 1.5 h
Compound: N#C[C@@H]1CC(F)(F)CN1C(=O)CNC(=O)c1ccc2c(c1)CN(C(=O)CCC(=O)NCCNC(=O)CCC(C(=O)O)N1CCN(CC(=O)[O-])CCN(CC(=O)[O-])CCN(CC(=O)[O-])CC1)C2.[68Ga+3] (stereo partly drawn) [^68Ga-JHH7]
- uptake in the tumor at 3 hours: a certain amount of uptake in the tumor was still observed

- Imaging data, Bladder (5 min): 4.24
- Imaging data, Bone (5 min): 0.92
- Imaging data, Brain (5 min): 0.98
- Imaging data, Heart (5 min): 8.61
- Imaging data, Intestine (5 min): 1.96
- Imaging data, Kidney (5 min): 13.43
- Imaging data, Liver (5 min): 5.43
- Imaging data, Lung (5 min): 3.12
- Imaging data, Muscle (5 min): 0.82
- Imaging data, Tumor (5 min): 1.06
- Imaging data, Bladder (10 min): 17.03
- Imaging data, Bone (10 min): 1.68
- Imaging data, Brain (10 min): 0.66
- Imaging data, Heart (10 min): 4.33
- Imaging data, Intestine (10 min): 1.99
- Imaging data, Kidney (10 min): 15.81
- Imaging data, Liver (10 min): 3.56
- Imaging data, Lung (10 min): 2.08
- Imaging data, Muscle (10 min): 1.22
- Imaging data, Tumor (10 min): 2.47
- Imaging data, Bladder (15 min): 27.04
- Imaging data, Bone (15 min): 1.17
- Imaging data, Brain (15 min): 0.59
- Imaging data, Heart (15 min): 3.22
- Imaging data, Intestine (15 min): 1.66
- Imaging data, Kidney (15 min): 20.15
- Imaging data, Liver (15 min): 2.78
- Imaging data, Lung (15 min): 1.97
- Imaging data, Muscle (15 min): 1.16
- Imaging data, Tumor (15 min): 3.26
- Imaging data, Bladder (20 min): 45.38
- Imaging data, Bone (20 min): 1.08
- Imaging data, Brain (20 min): 0.55
- Imaging data, Heart (20 min): 2.72
- Imaging data, Intestine (20 min): 1.54
- Imaging data, Kidney (20 min): 13.33
- Imaging data, Liver (20 min): 2.44
- Imaging data, Lung (20 min): 1.88
- Imaging data, Muscle (20 min): 0.98
- Imaging data, Tumor (20 min): 3.87
- Imaging data, Bladder (25 min): 60.89
- Imaging data, Bone (25 min): 1.22
- Imaging data, Brain (25 min): 0.45
- Imaging data, Heart (25 min): 2.29
- Imaging data, Intestine (25 min): 1.30
- Imaging data, Kidney (25 min): 8.42
- Imaging data, Liver (25 min): 2.16
- Imaging data, Lung (25 min): 1.47
- Imaging data, Muscle (25 min): 0.75
- Imaging data, Tumor (25 min): 4.30
- Imaging data, Bladder (30 min): 73.70
- Imaging data, Bone (30 min): 0.82
- Imaging data, Brain (30 min): 0.41
- Imaging data, Heart (30 min): 1.98
- Imaging data, Intestine (30 min): 1.22
- Imaging data, Kidney (30 min): 5.54
- Imaging data, Liver (30 min): 2.05
- Imaging data, Lung (30 min): 1.48
- Imaging data, Muscle (30 min): 0.65
- Imaging data, Tumor (30 min): 4.60
- Imaging data, Bladder (1.5 h): 265.50
- Imaging data, Bone (1.5 h): 0.50
- Imaging data, Brain (1.5 h): 0.03
- Imaging data, Heart (1.5 h): 0.20
- Imaging data, Intestine (1.5 h): 0.62
- Imaging data, Kidney (1.5 h): 1.00
- Imaging data, Liver (1.5 h): 0.78
- Imaging data, Lung (1.5 h): 0.58
- Imaging data, Muscle (1.5 h): 0.37
- Imaging data, Tumor (1.5 h): 4.40
- Imaging data, Bladder (3 h): 4.50
- Imaging data, Bone (3 h): 0.02
- Imaging data, Brain (3 h): 0.04
- Imaging data, Heart (3 h): 0.12
- Imaging data, Intestine (3 h): 0.08
- Imaging data, Kidney (3 h): 0.46
- Imaging data, Liver (3 h): 0.82
- Imaging data, Lung (3 h): 0.25
- Imaging data, Muscle (3 h): 0.08
- Imaging data, Tumor (3 h): 2.30
- uptake in the tumor at 3 hours: tumor uptake was still observed
- time of peak tumor uptake after injection [1]: 30 min
Compound: N#C[C@@H]1CC(F)(F)CN1C(=O)CNC(=O)c1cc2c(s1)CCN(C(=O)CCC(=O)NCCNC(=O)CCNC(=O)CN1CCN(CC(=O)O)CCN(CC(=O)O)CCN(CC(=O)O)CC1)C2 [^68Ga-JHH11, metal not drawn]
- metabolism and excretion from the mice (after injection): rapidly metabolized and excreted from the mice
